{"source": "patent US8815509B2", "about": "“Fluorescence-based assay for the rapid detection and quantification of deoxyribonucleoside triphosphates” (University of Southern California, priority 2011, dated 2014)", "tested_on": "HCT116 human colorectal cancer cells", "assay": "Intracellular dNTP pools of HCT116 cells after treatment with thymidylate synthase inhibitors, measured with the fluorescence-based dNTP assay", "settings": "for Intracellular dGTP concentration / Intracellular dCTP concentration / Intracellular dATP concentration / Intracellular dTTP concentration: 4 h, Mean ± SD; for Intracellular dGTP concentration: control 4.7 ± 0.8; for Intracellular dCTP concentration: control 10.5 ± 0.2; for Intracellular dATP concentration: control 13.6 ± 1.17; for Intracellular dTTP concentration: control 20.4 ± 0.77; for dGTP after treatment: depletion from 4.7; for dTTP after treatment: vehicle-treated cells 20.4; for dCTP levels after treatment: reduction from 10.5", "key": {"[1]": {"settings": "HCT116, 2.5 μmol/L pemetrexed, 4 hours"}}, "method": "Reaction mixtures contained primer, probe and template at an equimolar final concentration of 0.4 mmol/L. MgCl2 was included at a final concentration of 2 mmol/L. Non-limiting dNTPs were included in the reaction mix in excess at a final concentration of 100 mmol/L (the dNTP to be assayed was excluded). AmpliTaq Gold DNA polymerase was added at 0.875 U/reaction, 2.5 μl of 10×PCR buffer 2 added and nuclease-free ddH2O added to a final reaction volume of 25 μl. For analysis of cell extracts, the volume of ddH20 was modified to accommodate the addition of 2.5 μl of cell extract. For dUTP determination from cell extracts, the volume of ddH20 was further modified to accommodate an additional 1 μl of dUTPase (10 ng/μl). Thermal profiling and fluorescence detection was performed using the ‘isothermal’ program on board an Applied Biosystems 7500 Real-Time PCR System. For analysis of dNTPs, the thermal profile consisted of a 10 min 95° C. step to ‘hot-start’ the Taq polymerase and a primer extension time of up to 30 min at 60° C. depending on the application. Raw fluorescence spectra for 6-FAM was measured using filter A at specified time intervals (typically every 5 min) to follow assay progression using Sequence Detection Software (SDS Version 1.4, Applied Biosystems) and exported and analyzed in Microsoft Excel (Microsoft, Redmond Wash.) and Prism (GraphPad Software, La Jolla Calif.). In all cases, fluorescence values for blank reactions (limiting dNTP omitted) were subtracted to give normalized fluorescence units (NFU) to account for background probe fluorescence.\nThe human colorectal cancer cell line HCT116 was purchased from American Type Culture Collection (Lockville, Md.). HCT116 cells were maintained in McCoy's 5A media (Invitrogen) supplemented with 10% fetal bovine serum (Lonza, Walkersville, Md.) with penicillin/streptomycin, sodium pyruvate and L-glutamine (Invitrogen, Carlsbad, Calif.). For pemetrexed analyses, cells were incubated in folate-depleted RPMI supplemented with 25 nmol/L 5-Formyltetrahydrofolate, 10% fetal bovine serum (Lonza), penicillin/streptomycin, sodium pyruvate and L-glutamine for 24 h prior to treatment. Cells were maintained in a humidified Form a incubator (Form a, Waltham, Mass.) at 37° C. with 5% CO2 and routinely screened for mycoplasma using the MycoALERT detection kit (Lonza) and verified mycoplasma negative.\nThe relationship between assay response and known concentrations of the analytes (dNTPs) was analyzed by a 5-point (minimum) calibration curve. Calibration curves were obtained by assaying serial dilutions of dNTP standards diluted with ultra-pure nuclease-free water to the desired concentration and evaluated using regression coefficients (R^2). Samples were assayed in triplicate, and experiments were repeated on three independent occasions as appropriate. The limit of detection (LOD) was defined as the mean value of the negative blind controls plus 3 standard deviations (SD) of the mean, i.e. the concentration with a signal to noise ratio of 3:1. The limit of quantification (LOQ) was defined as the mean value of the negative controls plus 5 SD determined from three independent assays (signal to noise ratio of 5:1). Coefficient of variation (% CV) values were calculated from the cumulative mean and SD of replicates. Inter-assay % CVs were calculated from 3 independent experiments performed on different days. The intra-assay % CV represents the mean±SD % CV obtained from assaying replicate samples within 3 identical yet independent assays performed on the same day. The accuracy was assessed by comparing the nominal dNTP concentrations with the corresponding calculated values based on the calibration curve and presented as a percentage.", "data": [{"compound": "Nc1nc2[nH]cc(CCc3ccc(C(=O)N[C@@H](CCC(=O)O)C(=O)O)cc3)c2c(=O)[nH]1", "note": "[PTX, pemetrexed]", "values": [{"measurement": "Intracellular dGTP concentration", "setting": "HCT116, 2.5 μmol/L PTX", "value": "1.14 ± 0.3", "unit": "pmoles × 10^6 cells"}, {"measurement": "Intracellular dCTP concentration", "setting": "HCT116, 2.5 μmol/L PTX", "value": "11.1 ± 2.5", "unit": "pmoles × 10^6 cells"}, {"measurement": "Intracellular dATP concentration", "setting": "HCT116, 2.5 μmol/L PTX", "value": "13.4 ± 1.68", "unit": "pmoles × 10^6 cells"}, {"measurement": "Intracellular dTTP concentration", "setting": "HCT116, 2.5 μmol/L PTX", "value": "3.93 ± 0.8", "unit": "pmoles × 10^6 cells"}, {"measurement": "dGTP after treatment", "setting": "[1]", "value": 1.1, "unit": "pmoles per 10^6 cells"}, {"measurement": "dTTP after treatment", "setting": "[1]", "value": 3.9, "unit": "pmoles per 10^6 cells"}]}, {"compound": "O=c1[nH]c(=O)n([C@H]2C[C@H](O)[C@@H](CO)O2)cc1F", "note": "[FUdR, fluorodeoxyuridine]", "values": [{"measurement": "Intracellular dGTP concentration", "setting": "HCT116, 1 μmol/L FUdR", "value": "0.43 ± 0.11", "unit": "pmoles × 10^6 cells"}, {"measurement": "Intracellular dCTP concentration", "setting": "HCT116, 1 μmol/L FUdR", "value": "8 ± 0.04", "unit": "pmoles × 10^6 cells"}, {"measurement": "Intracellular dATP concentration", "setting": "HCT116, 1 μmol/L FUdR", "value": "14.5 ± 0.13", "unit": "pmoles × 10^6 cells"}, {"measurement": "Intracellular dTTP concentration", "setting": "HCT116, 1 μmol/L FUdR", "value": "4.5 ± 0.71", "unit": "pmoles × 10^6 cells"}, {"measurement": "Depletion of dTTP versus vehicle-treated cells", "setting": "HCT116, 1 μmol/L FUdR, 4 hours", "value": "> 4", "unit": "fold"}, {"measurement": "dGTP after treatment", "setting": "HCT116, 1 μmol/L FUdR, 4 hours", "value": 0.43, "unit": "pmoles per 10^6 cells"}, {"measurement": "dCTP levels after treatment", "setting": "HCT116, 1 μmol/L FUdR, 4 hours", "value": 8, "unit": "pmoles per 10^6"}, {"measurement": "dTTP after treatment", "setting": "HCT116, 1 μmol/L FUdR, 4 hours", "value": 4.5, "unit": "pmoles per 10^6 cells"}]}, {"compound": "O=c1[nH]cc(F)c(=O)[nH]1", "note": "[5-FU, 5-fluorouracil]", "values": [{"measurement": "Intracellular dGTP concentration", "setting": "HCT116, 5 μmol/L 5-FU", "value": "0.88 ± 0.1", "unit": "pmoles × 10^6 cells"}, {"measurement": "Intracellular dCTP concentration", "setting": "HCT116, 5 μmol/L 5-FU", "value": "8.7 ± 0.24", "unit": "pmoles × 10^6 cells"}, {"measurement": "Intracellular dATP concentration", "setting": "HCT116, 5 μmol/L 5-FU", "value": "13.9 ± 0.33", "unit": "pmoles × 10^6 cells"}, {"measurement": "Intracellular dTTP concentration", "setting": "HCT116, 5 μmol/L 5-FU", "value": "1.64 ± 0.16", "unit": "pmoles × 10^6 cells"}, {"measurement": "dGTP after treatment", "setting": "HCT116, 5 μmol/L 5-FU, 4 hours", "value": 0.9, "unit": "pmoles per 10^6 cells"}, {"measurement": "dCTP levels after treatment", "setting": "HCT116, 5 μmol/L 5-FU, 4 hours", "value": 8.7, "unit": "pmoles per 10^6"}, {"measurement": "dTTP after treatment", "setting": "HCT116, 5 μmol/L 5-FU, 4 hours", "value": 1.6, "unit": "pmoles per 10^6 cells"}]}]}
